Consider 15 compounds from ChEMBL document CHEMBL3046651, “Cytotoxicity and QSAR study of (thio)ureas derived from phenylalkylamines and pyridylalkylamines” (Med Chem Res, 2013).

Type in all cases: functional, cell-based
The subject of assay [1] is HepG2. Briefly: Cytotoxicity against Homo sapiens (human) HepG2 cells assessed as inhibition of cell growth after 3 days by MTT assay. As to conditions: HepG2, 72 h.
Assay [2] can be described thus: Cytotoxicity against Homo sapiens (human) HuCCa1 cells assessed as inhibition of cell growth after 3 days by crystal violet staining. The following applies: HuCC-A1, 72 h.
Assay [3] relates to MOLT-3. Briefly: Cytotoxicity against Homo sapiens (human) MOLT3 cells assessed as inhibition of cell growth after 3 days by crystal violet staining. As to conditions: MOLT-3, 72 h.
Assay [4] concerns A549. Briefly: Cytotoxicity against Homo sapiens (human) A549 cells assessed as inhibition of cell growth after 3 days by MTT assay. As to conditions: A549, 72 h. A general note: Formazan colour is commonly taken as a measure of viable cells.

Bounds are passed on as bounds.

For orientation: IC50 means the point on the concentration scale where inhibition reaches its midpoint. In the case of `O=[N+]([O-])c1ccc(NC(S)=NCCc2ccccc2)cc1`, the IC50 in assay [1] amounted to 25.4 µM; in assay [2], 19.1 µM; in assay [3] it was 12.5 µM; in assay [4], 80.3 µM.

For the compound `O=C(NCCc1ccccc1)Nc1ccc(Cl)cc1`, the concentration for half-maximal inhibition (IC50) in assay [1] is 37.6 µM; in assay [2], above 182 µM; in assay [3], above 182 µM; in assay [4], above 182 µM.

`S=C(NCc1ccccn1)Nc1ccc(Cl)cc1`: the IC50 in assay [1] was above 180 µM; in assay [2], above 180 µM; in assay [3], 119 µM; in assay [4], above 180 µM.

For the compound `S=C(NCCc1ccccc1)Nc1ccc(Cl)cc1`, the IC50 was found to be 44.7 µM in assay [1], 84.2 µM in assay [2], 25.1 µM in assay [3] and 75.7 µM in assay [4].

Take `S=C(NCCc1ccccn1)Nc1ccc(Cl)cc1`: the IC50 in assay [1] is above 171 µM; in assay [2], above 171 µM; in assay [3], 120 µM; in assay [4], above 171 µM.

On to `O=C(NCc1ccccn1)Nc1ccc(Cl)cc1`, for which the IC50 in assay [1] was above 191 µM; in assay [2], above 191 µM; in assay [3], 186 µM; in assay [4] it was above 191 µM.

For the compound `COc1ccc(CCNC(=S)Nc2ccc([N+](=O)[O-])cc2)cc1OC`, the IC50 is 42.4 µM in assay [1], above 138 µM in assay [2], 21.7 µM in assay [3] and 65 µM in assay [4].

For the compound `COc1ccc(CCNC(=S)Nc2ccc(Cl)cc2)cc1OC`, the IC50 came out at 60.8 µM in assay [1], 139 µM in assay [2], 38.9 µM in assay [3] and 129 µM in assay [4].

Regarding `COc1ccc(CCNC(=O)Nc2ccc(Cl)cc2)cc1OC`, the IC50 in assay [1] was 52.8 µM; in assay [2], above 149 µM; in assay [3], 50.7 µM; in assay [4], above 149 µM.

Turning to `O=[N+]([O-])c1ccc(NC(=S)NCCc2ccccn2)cc1`, the IC50 in assay [1] was 152 µM; in assay [2], above 165 µM; in assay [3], 78.7 µM; in assay [4] it was above 165 µM.

`O=C(NCCc1ccccn1)Nc1ccc(Cl)cc1`: the IC50 was 22.7 µM in assay [1], above 181 µM in assay [2], 66.9 µM in assay [3] and above 181 µM in assay [4].

For the compound `O=[N+]([O-])c1ccc(NC(=S)NCc2ccccn2)cc1`, the concentration for half-maximal inhibition (IC50) was 34.7 µM in assay [1], above 173 µM in assay [2], 54.1 µM in assay [3] and above 173 µM in assay [4].

Consider `O=[N+]([O-])c1ccc(NC(=S)NCc2cccc(CNC(=S)Nc3ccc([N+](=O)[O-])cc3)c2)cc1`, for which the IC50 in assay [1] was determined as 7.51 µM; in assay [2] it was 34.2 µM; in assay [3] it was 3.36 µM; in assay [4], 88.6 µM.

On to `S=C(NCc1cccc(CNC(=S)Nc2ccc(Cl)cc2)c1)Nc1ccc(Cl)cc1`, for which the IC50 was 7.63 µM in assay [1], 52.6 µM in assay [2], 1.62 µM in assay [3] and above 105 µM in assay [4].

With `COc1cccc2c1C(=O)c1c(O)c3c(c(O)c1C2=O)C[C@@](O)(C(=O)CO)C[C@@H]3O[C@H]1C[C@H](N)[C@H](O)[C@H](C)O1` [DOXORUBICIN], the IC50 came to 0.42 µM in assay [1], 0.64 µM in assay [2] and 0.7 µM in assay [4].
